Reference: PMC12583704 (Signal Transduction and Targeted Therapy, 2025)

Assay: Phase 1 study NCT03594422: adverse events graded by NCI CTCAE v4.03
Assay type: in vivo, human
Protocol: Part 1 was a dose-escalation study to determine the recommended phase 2 dose (RP2D) in solid tumors. […] The initial design was a 3 + 3 dose escalation from 20 mg, but the protocol was amended to randomly enroll and assign patients to starting doses of 30, 40, and 50 mg on the basis of safety data acquired in the CML trial.[20] […] An interactive web response system was used for randomization. Part 2 was a nonrandomized study focusing on patients with SDH-deficient GISTs. […] On the basis of preliminary data from adult patients, adolescent patients with advanced wild-type GISTs were also included in Part 2. The dosage for adolescents was adjusted according to their body weights.
AEs were evaluated at each follow-up visit: on Days 1, 8, 15, and 22 during Cycles 1 and 2; and on Days 1 and 15 in Cycle 3 and all subsequent cycles, up to 30 days after the final dose. All AEs were graded according to the National Cancer Institute Common Terminology Criteria for Adverse Events v4.03. Clinical laboratory investigations for routine blood examinations and serum chemistry parameters were performed during every cycle (on Day 1), during Cycles 1 and 2 (on Days 8, 15, and 22), and 30 days after the last dose of treatment. Urinalysis, coagulation, cardiac troponin I/T, lipase, amylase, and electrocardiographic evaluations were conducted at baseline; during Cycles 1 and 2 (on Days 1 and 15); during Cycles 3, 5, 7, and 9; every three cycles after Cycle 9 (on Day 1); and 14 days after the last dose of treatment. All patients underwent tumor imaging for response assessment via computed tomography or magnetic resonance imaging at screening and every two cycles (8 weeks) until progression or discontinuation. Target and nontarget lesions were assessed per the Response Evaluation Criteria in Solid Tumors version 1.1 (RECIST v1.1).

Cc1ccc(C(=O)Nc2ccc(CN3CCN(C)CC3)c(C(F)(F)F)c2)cc1C#Cc1cnc2[nH]ncc2c1 [Olverembatinib, 3-[(1H-pyrazolo[3,4-b]pyridin-5-yl)ethynyl]-4-methyl-N-{4-[(4-methylpiperazin-1-yl)methyl]-3-(trifluoromethyl)phenyl]benzamide]
TRAE: AST increased (30 mg (n = 15), Any grade): 5 (33.3) n (%)
TRAE: Anemia (30 mg (n = 15), Any grade): 1 (6.7) n (%)
TRAE: Blood creatinine increased (30 mg (n = 15), Any grade): 3 (20.0) n (%)
TRAE: Constipation (30 mg (n = 15), Any grade): 4 (26.7) n (%)
TRAE: Fatigue (30 mg (n = 15), Any grade): 4 (26.7) n (%)
TRAE: Hypoalbuminemia (30 mg (n = 15), Any grade): 4 (26.7) n (%)
TRAE: Leukocyte count increased (30 mg (n = 15), Any grade): 6 (40.0) n (%)
TRAE: Melanocytic nevus (30 mg (n = 15), Any grade): 3 (20.0) n (%)
TRAE: Neutrophil count increased (30 mg (n = 15), Any grade): 6 (40.0) n (%)
TRAE: Platelet count increased (30 mg (n = 15), Any grade): 1 (6.7) n (%)
TRAE: Pyrexia (30 mg (n = 15), Any grade): 1 (6.7) n (%)
TEAE: Abdominal pain (30 mg (n = 15), Grade 3-5): 1 (6.7) n (%)
TEAE: Alanine aminotransferase increased (30 mg (n = 15), Grade 3-5): 0 n (%)
TEAE: Anemia (30 mg (n = 15), Grade 3-5): 1 (6.7) n (%)
TEAE: Aspartate aminotransferase increased (30 mg (n = 15), Grade 3-5): 0 n (%)
TEAE: C-reactive protein increased (30 mg (n = 15), Grade 3-5): 0 n (%)
TEAE: Constipation (30 mg (n = 15), Grade 3-5): 0 n (%)
TEAE: Fatigue (30 mg (n = 15), Grade 3-5): 0 n (%)
TEAE: Hyperuricemia (30 mg (n = 15), Grade 3-5): 1 (6.7) n (%)
TEAE: Hypoalbuminemia (30 mg (n = 15), Grade 3-5): 0 n (%)
TEAE: Leukocyte count increased (30 mg (n = 15), Grade 3-5): 0 n (%)
TEAE: Melanocytic nevus (30 mg (n = 15), Grade 3-5): 0 n (%)
TEAE: Neutrophil count increased (30 mg (n = 15), Grade 3-5): 0 n (%)
TEAE: Pyrexia (30 mg (n = 15), Grade 3-5): 0 n (%)
TEAEs (30 mg (n = 15), Grade 3-5): 5 (33.3) n (%)
TRAE: ALT increased (30 mg (n = 15), Grade 3-5): 0 n (%)
TRAE: AST increased (30 mg (n = 15), Grade 3-5): 0 n (%)
TRAE: Anemia (30 mg (n = 15), Grade 3-5): 0 n (%)
TRAE: Blood creatinine increased (30 mg (n = 15), Grade 3-5): 0 n (%)
TRAE: Constipation (30 mg (n = 15), Grade 3-5): 0 n (%)
TRAE: Fatigue (30 mg (n = 15), Grade 3-5): 0 n (%)
TRAE: Hypoalbuminemia (30 mg (n = 15), Grade 3-5): 0 n (%)
TRAE: Leukocyte count increased (30 mg (n = 15), Grade 3-5): 0 n (%)
TRAE: Melanocytic nevus (30 mg (n = 15), Grade 3-5): 0 n (%)
TRAE: Neutrophil count increased (30 mg (n = 15), Grade 3-5): 0 n (%)
TRAE: Platelet count increased (30 mg (n = 15), Grade 3-5): 0 n (%)
TRAE: Pyrexia (30 mg (n = 15), Grade 3-5): 0 n (%)
TEAE: Abdominal pain (40 mg (n = 32), Any grade): 7 (21.9) n (%)
TEAE: Alanine aminotransferase increased (40 mg (n = 32), Any grade): 13 (40.6) n (%)
TEAE: Anemia (40 mg (n = 32), Any grade): 14 (43.8) n (%)
TEAE: Aspartate aminotransferase increased (40 mg (n = 32), Any grade): 14 (43.8) n (%)
TEAE: C-reactive protein increased (40 mg (n = 32), Any grade): 8 (25.0) n (%)
TEAE: Constipation (40 mg (n = 32), Any grade): 13 (40.6) n (%)
TEAE: Fatigue (40 mg (n = 32), Any grade): 11 (34.4) n (%)
TEAE: Hyperuricemia (40 mg (n = 32), Any grade): 17 (53.1) n (%)
TEAE: Hypoalbuminemia (40 mg (n = 32), Any grade): 5 (15.6) n (%)
TEAE: Leukocyte count increased (40 mg (n = 32), Any grade): 15 (46.9) n (%)
TEAE: Melanocytic nevus (40 mg (n = 32), Any grade): 10 (31.3) n (%)
TEAE: Neutrophil count increased (40 mg (n = 32), Any grade): 12 (37.5) n (%)
TEAE: Pyrexia (40 mg (n = 32), Any grade): 17 (53.1) n (%)
TEAEs (40 mg (n = 32), Any grade): 32 (100.0) n (%)
TRAE: ALT increased (40 mg (n = 32), Any grade): 11 (34.4) n (%)
TRAE: AST increased (40 mg (n = 32), Any grade): 12 (37.5) n (%)
TRAE: Anemia (40 mg (n = 32), Any grade): 4 (12.5) n (%)
TRAE: Blood creatinine increased (40 mg (n = 32), Any grade): 5 (15.6) n (%)
TRAE: Constipation (40 mg (n = 32), Any grade): 13 (40.6) n (%)
TRAE: Fatigue (40 mg (n = 32), Any grade): 9 (28.1) n (%)
TRAE: Hypoalbuminemia (40 mg (n = 32), Any grade): 3 (9.4) n (%)
TRAE: Leukocyte count increased (40 mg (n = 32), Any grade): 12 (37.5) n (%)
TRAE: Melanocytic nevus (40 mg (n = 32), Any grade): 8 (25.0) n (%)
TRAE: Neutrophil count increased (40 mg (n = 32), Any grade): 9 (28.1) n (%)
TRAE: Platelet count increased (40 mg (n = 32), Any grade): 4 (12.5) n (%)
TRAE: Pyrexia (40 mg (n = 32), Any grade): 14 (43.8) n (%)
TEAE: Abdominal pain (40 mg (n = 32), Grade 3-5): 0 n (%)
TEAE: Alanine aminotransferase increased (40 mg (n = 32), Grade 3-5): 0 n (%)
TEAE: Anemia (40 mg (n = 32), Grade 3-5): 2 (6.3) n (%)
TEAE: Aspartate aminotransferase increased (40 mg (n = 32), Grade 3-5): 0 n (%)
TEAE: C-reactive protein increased (40 mg (n = 32), Grade 3-5): 0 n (%)
